{"source": "patent US20060235076A1", "about": "“Medicinal composition for treating infection with drug-resistant staphylococcus aureus” (priority 2003, published 2006)", "key": {"[1]": {"tested_on": "MRSA COL and MRSA Strain No. 5", "experiment": "Potentiating effect of various gallates for antibacterial activity of oxacillin (MIC by broth microdilution method and FIC)", "type": "cell-based, Staphylococcus aureus", "settings": "for FIC value: combination with oxacillin", "description": "According to the broth microdilution method defined by Japan Society of Chemotherapy, MIC was determined. CAMHA was prepared by adding 50 mg/l of Ca-ion, 25 mg/l of Mg-ion, and 2% of NaCl to MHB (Mueller-Hinton Broth), and it was used as a medium for use in the measurement of sensitivity. In 96-well microplates 100 μl of the medium for use in the measurement of sensitivity containing drugs was dispensed. The bacterial liquid was incubated at 37° C. overnight, diluted with saline and added to the plate so that the final concentration of the bacteria was 5×10^5 CFU/well. […] FIC (fractional inhibitory concentration) was calculated from the result and the potency of the effect of the combination use was evaluated."}, "MRSA": {"tested_on": "MRSA", "experiment": "Potentiating effect of galloyl quinic acid derivatives for the antibacterial activity of oxacillin (agar plate dilution method, MIC)", "type": "cell-based, Staphylococcus aureus", "description": "According to the agar plate dilution method defined by Japan Society of Chemotherapy, MIC (Minimum inhibitory concentration) was determined. CAMHA was prepared by adding 50 mg/l of Ca-ion, 25 mg/l of Mg-ion, and 2% of NaCl to Mueller-Hinton II Agar (MHA), and it was used as a medium for use in the measurement of sensitivity. The bacterial liquid was incubated at 37° C. overnight and diluted to 10^6 CFU/ml with saline.\nIt was confirmed that the known substances shown below were contained in “Tara” and their MICs were determined as described in example 2 with respect to the effects of the combination use with oxacillin"}}, "data": [{"smiles": "O=C(O[C@@H]1Cc2c(O)cc(O)cc2O[C@H]1c1cc(O)c(O)c(O)c1)c1cc(O)c(O)c(O)c1", "note": "[Gallocatechin gallate, gallocatechin gallate]", "values": [{"measurement": "effect of the combination use with oxacillin by FIC values", "setting": "[1]; COL Strain and Strain No. 5", "result": "more potent effects of the combination use"}, {"measurement": "FIC value", "setting": "[1]; MRSA COL", "result": 0.281}, {"measurement": "FIC value", "setting": "[1]; MRSA Strain No. 5", "result": 0.188}]}, {"smiles": "O=C(OC1CC(O)(C(=O)O)CC(OC(=O)c2cc(O)c(O)c(O)c2)C1OC(=O)c1cc(O)c(O)c(O)c1)c1cc(O)c(O)c(O)c1", "note": "(stereo not shown) [compound 3]", "values": [{"measurement": "Oxacillin MIC", "setting": "MRSA; ATCC 6538, with 12.5 μg/ml of compound", "result": "<0.5", "unit": "µg/mL"}, {"measurement": "Oxacillin MIC", "setting": "MRSA; ATCC 6538, with 25 μg/ml of compound", "result": "<0.5", "unit": "µg/mL"}, {"measurement": "Oxacillin MIC", "setting": "MRSA; ATCC 6538, with 50 μg/ml of compound", "result": "<0.5", "unit": "µg/mL"}, {"measurement": "Oxacillin MIC", "setting": "MRSA; MRSA 1, with 12.5 μg/ml of compound", "result": 128, "unit": "µg/mL"}, {"measurement": "Oxacillin MIC", "setting": "MRSA; MRSA 1, with 25 μg/ml of compound", "result": 32, "unit": "µg/mL"}, {"measurement": "Oxacillin MIC", "setting": "MRSA; MRSA 1, with 50 μg/ml of compound", "result": 64, "unit": "µg/mL"}, {"measurement": "Oxacillin MIC", "setting": "MRSA; MRSA 2, with 12.5 μg/ml of compound", "result": 2, "unit": "µg/mL"}, {"measurement": "Oxacillin MIC", "setting": "MRSA; MRSA 2, with 25 μg/ml of compound", "result": "<0.5", "unit": "µg/mL"}, {"measurement": "Oxacillin MIC", "setting": "MRSA; MRSA 2, with 50 μg/ml of compound", "result": "<0.5", "unit": "µg/mL"}, {"measurement": "Oxacillin MIC", "setting": "MRSA; MRSA 3, with 12.5 μg/ml of compound", "result": 4, "unit": "µg/mL"}, {"measurement": "Oxacillin MIC", "setting": "MRSA; MRSA 3, with 25 μg/ml of compound", "result": "<0.5", "unit": "µg/mL"}, {"measurement": "Oxacillin MIC", "setting": "MRSA; MRSA 3, with 50 μg/ml of compound", "result": 1, "unit": "µg/mL"}, {"measurement": "Oxacillin MIC", "setting": "MRSA; MRSA 4, with 12.5 μg/ml of compound", "result": 32, "unit": "µg/mL"}, {"measurement": "Oxacillin MIC", "setting": "MRSA; MRSA 4, with 25 μg/ml of compound", "result": 4, "unit": "µg/mL"}, {"measurement": "Oxacillin MIC", "setting": "MRSA; MRSA 4, with 50 μg/ml of compound", "result": 2, "unit": "µg/mL"}, {"measurement": "Oxacillin MIC", "setting": "MRSA; MRSA 5, with 12.5 μg/ml of compound", "result": 64, "unit": "µg/mL"}, {"measurement": "Oxacillin MIC", "setting": "MRSA; MRSA 5, with 25 μg/ml of compound", "result": 8, "unit": "µg/mL"}, {"measurement": "Oxacillin MIC", "setting": "MRSA; MRSA 5, with 50 μg/ml of compound", "result": 8, "unit": "µg/mL"}, {"measurement": "Oxacillin MIC", "setting": "MRSA; MRSA 6, with 12.5 μg/ml of compound", "result": 4, "unit": "µg/mL"}, {"measurement": "Oxacillin MIC", "setting": "MRSA; MRSA 6, with 25 μg/ml of compound", "result": 2, "unit": "µg/mL"}, {"measurement": "Oxacillin MIC", "setting": "MRSA; MRSA 6, with 50 μg/ml of compound", "result": 4, "unit": "µg/mL"}, {"measurement": "Oxacillin MIC", "setting": "MRSA; MRSA 7, with 12.5 μg/ml of compound", "result": 16, "unit": "µg/mL"}, {"measurement": "Oxacillin MIC", "setting": "MRSA; MRSA 7, with 25 μg/ml of compound", "result": 4, "unit": "µg/mL"}, {"measurement": "Oxacillin MIC", "setting": "MRSA; MRSA 7, with 50 μg/ml of compound", "result": 2, "unit": "µg/mL"}, {"measurement": "Oxacillin MIC", "setting": "MRSA; MRSA 8, with 12.5 μg/ml of compound", "result": 8, "unit": "µg/mL"}, {"measurement": "Oxacillin MIC", "setting": "MRSA; MRSA 8, with 25 μg/ml of compound", "result": 4, "unit": "µg/mL"}, {"measurement": "Oxacillin MIC", "setting": "MRSA; MRSA 8, with 50 μg/ml of compound", "result": 8, "unit": "µg/mL"}, {"measurement": "Oxacillin MIC", "setting": "MRSA; MRSA 9, with 12.5 μg/ml of compound", "result": 8, "unit": "µg/mL"}, {"measurement": "Oxacillin MIC", "setting": "MRSA; MRSA 9, with 25 μg/ml of compound", "result": 2, "unit": "µg/mL"}, {"measurement": "Oxacillin MIC", "setting": "MRSA; MRSA 9, with 50 μg/ml of compound", "result": 2, "unit": "µg/mL"}, {"measurement": "Oxacillin MIC", "setting": "MRSA; MRSA 10, with 12.5 μg/ml of compound", "result": 4, "unit": "µg/mL"}, {"measurement": "Oxacillin MIC", "setting": "MRSA; MRSA 10, with 25 μg/ml of compound", "result": 2, "unit": "µg/mL"}, {"measurement": "Oxacillin MIC", "setting": "MRSA; MRSA 10, with 50 μg/ml of compound", "result": 4, "unit": "µg/mL"}, {"measurement": "Oxacillin MIC", "setting": "MRSA; MRSA 12, with 12.5 μg/ml of compound", "result": 8, "unit": "µg/mL"}, {"measurement": "Oxacillin MIC", "setting": "MRSA; MRSA 12, with 25 μg/ml of compound", "result": 4, "unit": "µg/mL"}, {"measurement": "Oxacillin MIC", "setting": "MRSA; MRSA 12, with 50 μg/ml of compound", "result": 4, "unit": "µg/mL"}, {"measurement": "Oxacillin MIC", "setting": "MRSA; MRSA 16, with 12.5 μg/ml of compound", "result": 32, "unit": "µg/mL"}, {"measurement": "Oxacillin MIC", "setting": "MRSA; MRSA 16, with 25 μg/ml of compound", "result": 8, "unit": "µg/mL"}, {"measurement": "Oxacillin MIC", "setting": "MRSA; MRSA 16, with 50 μg/ml of compound", "result": 8, "unit": "µg/mL"}, {"measurement": "Oxacillin MIC", "setting": "MRSA; MRSA 17, with 12.5 μg/ml of compound", "result": 4, "unit": "µg/mL"}, {"measurement": "Oxacillin MIC", "setting": "MRSA; MRSA 17, with 25 μg/ml of compound", "result": 8, "unit": "µg/mL"}, {"measurement": "Oxacillin MIC", "setting": "MRSA; MRSA 17, with 50 μg/ml of compound", "result": 4, "unit": "µg/mL"}, {"measurement": "Oxacillin MIC", "setting": "MRSA; MRSA 18, with 12.5 μg/ml of compound", "result": 32, "unit": "µg/mL"}, {"measurement": "Oxacillin MIC", "setting": "MRSA; MRSA 18, with 25 μg/ml of compound", "result": 4, "unit": "µg/mL"}, {"measurement": "Oxacillin MIC", "setting": "MRSA; MRSA 18, with 50 μg/ml of compound", "result": 4, "unit": "µg/mL"}, {"measurement": "Oxacillin MIC", "setting": "MRSA; MRSA 20, with 12.5 μg/ml of compound", "result": "<0.5", "unit": "µg/mL"}, {"measurement": "Oxacillin MIC", "setting": "MRSA; MRSA 20, with 25 μg/ml of compound", "result": "<0.5", "unit": "µg/mL"}, {"measurement": "Oxacillin MIC", "setting": "MRSA; MRSA 20, with 50 μg/ml of compound", "result": "<0.5", "unit": "µg/mL"}, {"measurement": "Oxacillin MIC", "setting": "MRSA; MRSA 21, with 12.5 μg/ml of compound", "result": 1, "unit": "µg/mL"}, {"measurement": "Oxacillin MIC", "setting": "MRSA; MRSA 21, with 25 μg/ml of compound", "result": "<0.5", "unit": "µg/mL"}, {"measurement": "Oxacillin MIC", "setting": "MRSA; MRSA 21, with 50 μg/ml of compound", "result": "<0.5", "unit": "µg/mL"}, {"measurement": "Oxacillin MIC", "setting": "MRSA; MRSA 22, with 12.5 μg/ml of compound", "result": 1, "unit": "µg/mL"}, {"measurement": "Oxacillin MIC", "setting": "MRSA; MRSA 22, with 25 μg/ml of compound", "result": "<0.5", "unit": "µg/mL"}, {"measurement": "Oxacillin MIC", "setting": "MRSA; MRSA 22, with 50 μg/ml of compound", "result": 1, "unit": "µg/mL"}, {"measurement": "Oxacillin MIC", "setting": "MRSA; MRSA COL, with 12.5 μg/ml of compound", "result": 8, "unit": "µg/mL"}, {"measurement": "Oxacillin MIC", "setting": "MRSA; MRSA COL, with 25 μg/ml of compound", "result": 4, "unit": "µg/mL"}, {"measurement": "Oxacillin MIC", "setting": "MRSA; MRSA COL, with 50 μg/ml of compound", "result": 4, "unit": "µg/mL"}, {"measurement": "Oxacillin MIC", "setting": "MRSA; MSSA 1003, with 12.5 μg/ml of compound", "result": "<0.5", "unit": "µg/mL"}, {"measurement": "Oxacillin MIC", "setting": "MRSA; MSSA 1003, with 25 μg/ml of compound", "result": "<0.5", "unit": "µg/mL"}, {"measurement": "Oxacillin MIC", "setting": "MRSA; MSSA 1003, with 50 μg/ml of compound", "result": "<0.5", "unit": "µg/mL"}, {"measurement": "Oxacillin MIC", "setting": "MRSA; MSSA 1010, with 12.5 μg/ml of compound", "result": "<0.5", "unit": "µg/mL"}, {"measurement": "Oxacillin MIC", "setting": "MRSA; MSSA 1010, with 25 μg/ml of compound", "result": "<0.5", "unit": "µg/mL"}, {"measurement": "Oxacillin MIC", "setting": "MRSA; MSSA 1010, with 50 μg/ml of compound", "result": "<0.5", "unit": "µg/mL"}, {"measurement": "Oxacillin MIC", "setting": "MRSA; MSSA 1032, with 12.5 μg/ml of compound", "result": "<0.5", "unit": "µg/mL"}, {"measurement": "Oxacillin MIC", "setting": "MRSA; MSSA 1032, with 25 μg/ml of compound", "result": "<0.5", "unit": "µg/mL"}, {"measurement": "Oxacillin MIC", "setting": "MRSA; MSSA 1032, with 50 μg/ml of compound", "result": "<0.5", "unit": "µg/mL"}, {"measurement": "Oxacillin MIC", "setting": "MRSA; RN4220, with 12.5 μg/ml of compound", "result": "<0.5", "unit": "µg/mL"}, {"measurement": "Oxacillin MIC", "setting": "MRSA; RN4220, with 25 μg/ml of compound", "result": "<0.5", "unit": "µg/mL"}, {"measurement": "Oxacillin MIC", "setting": "MRSA; RN4220, with 50 μg/ml of compound", "result": "<0.5", "unit": "µg/mL"}]}, {"smiles": "COC(=O)C1(O)CC(OC(=O)c2cc(O)c(O)c(O)c2)C(OC(=O)c2cc(O)c(O)c(O)c2)C(OC(=O)c2cc(O)c(O)c(O)c2)C1", "note": "(stereo not shown) [Methyl 3,4,5-trigalloylquinate, methyl 3,4,5-trigalloylquinate]", "values": [{"measurement": "effect of combination use with oxacillin (words)", "setting": "MRSA", "result": "weak effects"}]}]}
